According to patent publication US20230210864A1, “AGENT FOR PROMOTING CORNEAL ENDOTHELIAL CELL ADHESION” (Senju Pharmaceutical Co., Ltd., priority 2007, published 2023):

System: monkey corneal endothelial cells
Experiment: Adhesion of cultured monkey corneal endothelial cells with fasudil, CellTiter-Glo Luminescent Cell Viability Assay
Assay type: cell-based, Macaca fascicularis
Settings: fasudil 10 μM, passage-cultured cells
Procedure: From the corneal tissue isolated from Macaca fascicularis euthanized, Descemet's membrane with corneal endothelial cells attached thereto was separated. The Descemet's membrane was incubated together with Dispase II (1.2 U/ml, Roche Applied Science) under the conditions of 37° C., 5% CO2 for 45 min, and the corneal endothelial cells were mechanically separated by a pipetting operation. The separated corneal endothelial cells were centrifuged and passage-cultured in a medium for corneal endothelium. As the medium for corneal endothelium, the same cell culture medium as in Example 1 was used. The cultured monkey corneal endothelial cells collected during the passage culture by a 0.05% trypsin treatment were separated and centrifuged, and stirred to the same concentration in a medium for corneal endothelium added with fasudil (10 μM, SIGMA-ALDRICH) in the fasudil group and in a medium for corneal endothelium without addition of fasudil in the control group, and the cells were seeded on a 96 well plate at a density of about 2000 cells per well. At 24 hr from the start of the culture, the adhered cells were counted using CellTiter-Glo (registered trade mark) Luminescent Cell Viability Assay (Promega) (FIG. 17).

O=S(=O)(c1cccc2cnccc12)N1CCCNCC1 [fasudil, 1-(5-isoquinolinesulfonyl)homopiperazine]
cell adhesion of corneal endothelial cells at 24 hr, compared to control group: effect of promoted cell adhesion of the corneal endothelial cells was also found
